Among the test systems are BT-549 breast; T-47D breast; OVCAR-4 ovarian; SK-MEL-28 melanoma; CAKI-1 renal; HS 578T breast; MDA-MB-435; UO-31 renal.
Common to all, as to assay: DTP human tumour cell line panel, 48 h

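Where inhibition never reached the appropriate level, the endpoint shown equals the highest concentration tested. Otherwise, values were interpolated linearly from a five-concentration, 48-hour dose response in 96-well plates. Abbreviation: GI50, concentration required for 50% inhibition of growth. TGI: total growth inhibition.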

As to `Clc1ccc(CCNCCNC2(c3cc4ccccc4s3)CCCCC2)cc1Cl`, the total growth inhibition concentration (TGI) came out at 3.44 µM in the assay with BT-549 breast; 4.07 µM in the assay with T-47D breast; 3.17 µM with OVCAR-4 ovarian; 3.24 µM in the assay with SK-MEL-28 melanoma; 3.42 µM in the assay on CAKI-1 renal; 4.52 µM in the assay with HS 578T breast. In addition, the TGI was 3.83 µM in the assay on MDA-MB-435 and 3.46 µM with UO-31 renal.
For the molecule `O=[N+]([O-])c1cc(-c2ccc([As](=O)(O)O)cc2)ccc1[As](=O)(O)O`, the TGI with BT-549 breast, with T-47D breast, with OVCAR-4 ovarian, in the assay on SK-MEL-28 melanoma, in the assay with CAKI-1 renal and in the assay on HS 578T breast was above 100 µM in each case. For the same molecule, the TGI in the assay with MDA-MB-435 and in the assay with UO-31 renal was above 100 µM each time.
On to `Cc1cc2nc3c(C)c4ccccc4c(C)n3c2cc1C`, for which the TGI was above 10 µM in the assay on BT-549 breast; above 10 µM with T-47D breast; above 10 µM in the assay on OVCAR-4 ovarian; 9 µM in the assay on SK-MEL-28 melanoma; above 10 µM in the assay on CAKI-1 renal; above 10 µM in the assay with HS 578T breast. The molecule further gave a TGI in the assay on MDA-MB-435 above 10 µM.
For the molecule `CCc1c[n+]2c(cc1C1=CN3c4ccccc4[C@]45CCN6C/C(=C/CO)[C@H](C[C@H]64)[C@@H]([C@@H]1O)[C@H]35)-c1[nH]c3ccccc3c1CC2`, the TGI in the assay on BT-549 breast, in the assay on T-47D breast, with OVCAR-4 ovarian, in the assay on SK-MEL-28 melanoma, with CAKI-1 renal and in the assay with HS 578T breast was above 50 µM throughout. The TGI in the assay with MDA-MB-435 and in the assay with UO-31 renal was above 50 µM throughout.
For `Cc1ccc(S(=O)(=O)N(CC(O)COc2ccccc2)c2ccccc2Cl)cc1` (stereo not drawn), the TGI stood at 31.4 µM in the assay with BT-549 breast; 69.7 µM in the assay on T-47D breast; 26.1 µM with OVCAR-4 ovarian; 29.1 µM in the assay on SK-MEL-28 melanoma; 44.3 µM in the assay on CAKI-1 renal; 26.4 µM with HS 578T breast. Besides, the TGI is 31.7 µM with MDA-MB-435 and 24.8 µM in the assay with UO-31 renal.
In the case of `CCOC(=O)/C(C(N)=O)=C(/O)c1cnccn1`, the TGI in the assay on BT-549 breast, in the assay with T-47D breast, with OVCAR-4 ovarian, in the assay on SK-MEL-28 melanoma, with CAKI-1 renal and in the assay on HS 578T breast was above 100 µM throughout. The TGI in the assay with MDA-MB-435 and with UO-31 renal was above 100 µM each time.
As for `COc1ccc(C2=Nn3c(nc4sc5c(c4c3=O)CCCC5)SC2)cc1`, the concentration for total growth inhibition (TGI) with BT-549 breast, in the assay with T-47D breast, in the assay on OVCAR-4 ovarian, in the assay with SK-MEL-28 melanoma, in the assay on CAKI-1 renal and in the assay on HS 578T breast was above 100 µM in each case. Moreover, the TGI in the assay with MDA-MB-435 and in the assay on UO-31 renal was above 100 µM throughout.
On to `Cc1[nH]c(-c2ccccc2)c(O)c1C(=O)OC1CC(C)CCC1C(C)C` (stereo not drawn), for which the TGI came to 33 µM in the assay on BT-549 breast; 26.8 µM in the assay on T-47D breast; 27.4 µM with OVCAR-4 ovarian; 29.8 µM with SK-MEL-28 melanoma; 32.2 µM in the assay with CAKI-1 renal; 39 µM in the assay with HS 578T breast. Further, the total growth inhibition concentration (TGI) in the assay with MDA-MB-435 is 28 µM; in the assay on UO-31 renal, 26 µM.
With `O=C(/C=C/c1cc2ccccc2[nH]c1=O)c1ccc(O)cc1`, the GI50 with BT-549 breast is 1.95 µM; in the assay with T-47D breast, 4.19 µM; in the assay with SK-MEL-28 melanoma, 5.11 µM; in the assay with CAKI-1 renal, 4.71 µM; in the assay on HS 578T breast, 6.14 µM; in the assay on MDA-MB-435, 2.94 µM. For the same molecule, in the assay on UO-31 renal, the GI50 is 4.38 µM. Besides, the TGI in the assay on BT-549 breast is 5.35 µM; with T-47D breast it was 20.4 µM; in the assay with SK-MEL-28 melanoma it was 19.5 µM; in the assay with CAKI-1 renal, above 100 µM; in the assay with HS 578T breast, above 100 µM; in the assay on MDA-MB-435 it was 16.8 µM. In the assay with UO-31 renal, this molecule registered a concentration for total growth inhibition (TGI) of 26.7 µM.
On to `COC(=O)c1cc(NC(=O)Cn2c3ccccc3c3ccccc32)cn1C`, for which the TGI was 71.3 µM in the assay on BT-549 breast; above 100 µM in the assay on T-47D breast; 74.9 µM in the assay with OVCAR-4 ovarian; above 100 µM in the assay with SK-MEL-28 melanoma; above 100 µM in the assay on CAKI-1 renal; 42.4 µM in the assay with HS 578T breast. Moreover, the TGI in the assay on MDA-MB-435 and with UO-31 renal was above 100 µM throughout.
On to `O=C(NC1CCCCC1)N1CCNC1=S`, for which the TGI in the assay with BT-549 breast, with T-47D breast, in the assay on OVCAR-4 ovarian, in the assay on SK-MEL-28 melanoma, in the assay on CAKI-1 renal and in the assay with HS 578T breast was above 100 µM each time. The total growth inhibition concentration (TGI) in the assay with MDA-MB-435 and in the assay on UO-31 renal was above 100 µM each time.
On to `Cn1c(SCc2ccc([N+](=O)[O-])cc2)nnc1C12CC3CC(CC(C3)C1)C2`, for which the TGI with BT-549 breast, with T-47D breast, with OVCAR-4 ovarian, in the assay with SK-MEL-28 melanoma, in the assay on CAKI-1 renal and in the assay with HS 578T breast was above 10 µM throughout. The total growth inhibition concentration (TGI) in the assay with MDA-MB-435 and in the assay on UO-31 renal was above 10 µM each time.
Regarding `COc1cc2c(cc1OC)C/C(=N\O)c1cc(OC)c(OC)cc1/C=C\2`, the total growth inhibition concentration (TGI) in the assay on BT-549 breast was 97.1 µM; with T-47D breast, above 84.3 µM; with OVCAR-4 ovarian, above 100 µM; with SK-MEL-28 melanoma, above 45 µM; with CAKI-1 renal, above 29.4 µM; in the assay on HS 578T breast, 15.1 µM. In addition, the TGI in the assay with MDA-MB-435 is 4.05 µM; with UO-31 renal, above 69.7 µM.
For the molecule `O=C(O)Cn1cnc2c(=O)[nH]c(Nc3ccccc3)nc21`, the total growth inhibition concentration (TGI) in the assay on BT-549 breast, with T-47D breast, in the assay with OVCAR-4 ovarian, in the assay on SK-MEL-28 melanoma, in the assay with CAKI-1 renal and with HS 578T breast was above 100 µM each time. The TGI with MDA-MB-435 was above 100 µM.
Take `O=C(N/N=C/c1ccc(O)cc1)NNCCO`: the TGI in the assay on BT-549 breast, in the assay with T-47D breast, in the assay with SK-MEL-28 melanoma, in the assay with CAKI-1 renal, in the assay on HS 578T breast and in the assay with MDA-MB-435 was above 100 µM each time. The total growth inhibition concentration (TGI) in the assay on UO-31 renal was above 100 µM.

What is called TGI is the concentration at which net growth stops. Low readings indicate greater sensitivity of the cells, high ones lower sensitivity of the cells. Usually GI50 stands for the concentration at which growth is held to half of that of the control.
